In patent US20130203805A1, “Methods for treating anemia using inhibitors of hypoxia-inducible factor (HIF) hydroxylase” (FIBROGEN, INC., priority 2001, published 2013):

Legend:
[1] = system: erythropoietin gene expression; experiment: Erythropoietin gene expression in liver and kidney by quantitative PCR (Example 2, Experiment I); format: in vivo, Swiss Webster male mice; conditions: mice, 200 mg/kg/day oral gavage twice daily 2.5 days (5 doses), 4 h after final dose, FIG. 2A
Method: Twelve Swiss Webster male mice (30-32 g) were obtained from Simonsen, Inc. (Gilroy Calif.), and treated by oral gavage two times per day for 2.5 days (5 doses) with a 4 ml/kg volume of either 0.5% carboxymethyl cellulose (CMC; Sigma-Aldrich, St. Louis Mo.) (0 mg/kg/day) or 2.5% Compound C (25 mg/ml in 0.5% CMC) (200 mg/kg/day). Four hours after the final dose, animals were anesthetized with isoflurane and two blood samples were collected from the abdominal vein. One blood sample was collected into a MICROTAINER serum separator tube (Becton-Dickinson, Franklin Lakes N.J.), and incubated at room temperature for 30 minutes, centrifuged at 8,000 rpm at 4° C. for 10 minutes. The serum fraction was then processed and analyzed for erythropoietin (EPO) expression using a QUANTIKINE immunoassay (R&D Systems) according to the manufacturer's instructions. […] Hematocrit was measured by drawing EDTA-blood into a 75 mm×1.1-12 mm I.D. capillary tube (Chase Scientific Glass, Inc., Rockwood Tenn.) to approximately ¾ length. […] Hematocrit was read against a reader card. […]
RNA isolation was carried out using the following protocol. […] The RNA was eluted into 80 μL of water and quantitated with RIBOGREEN reagent (Molecular Probes, Eugene Oreg.). […] The absorbance at 260 and 280 nm was measured to determine RNA purity and concentration. […]
The relative level of 18S ribosomal RNA gene expression was measured as a control. […]

erythropoietin = experiment: Erythropoietin production following bilateral nephrectomy: serum erythropoietin (Example 8); format: in vivo; conditions: rats, 100 or 150 mg/kg oral gavage at 2 and 20 hours post-surgery, blood at 24 hours, FIG. 7
Method: The ability of a compound of the invention to induce endogenous erythropoietin production in the absence of functioning kidney was assayed using a procedure described by Jacobson et al, (1957, Nature 179:633-634.) Briefly, rats were anesthetized under isoflurane and a midline abdominal incision was made under sterile conditions. The kidney capsules were peeled off, the pedicles were ligated, and both kidneys were removed. The abdomen was then closed and the animal was allowed to recover.
Animals were treated by oral gavage at 2 and 20 hours post-surgery with either 0.5% carboxymethyl cellulose (CMC; Sigma-Aldrich, St. Louis Mo.) or with compound C at 100 or 150 mg/kg. Blood samples (0.6 ml) were collected at 24 hours as follows. Animals were anesthetized with isoflurane and blood was collected from the tail vein into a MICROTAINER EDTA-2K tube (Becton-Dickinson). Blood samples were processed for erythropoietin levels and hematocrit as described in Example 2. Complete Blood Count (CBC) analysis, including blood hemoglobin level, reticulocyte number, and hematocrit, was performed by IDEXX veterinary service (W. Sacramento, Calif.).

With `O=C(O)CNC(=O)c1nc(Cl)c2ccccc2c1O` [Compound C, [(1-chloro-4-hydroxy-isoquinoline-3-carbonyl)-amino]-acetic acid] the “increase over background in EPO transcript level, kidney” value ([1]; relative to untreated kidney) was “approximately 580 fold”, the “increase over background in EPO transcript level, liver” value ([1]; relative to untreated liver) was “approximately 32 fold” and the “serum erythropoietin levels, sham-operated animals” value (erythropoietin) was “significantly increased”. For the same compound, the “serum erythropoietin levels, bilaterally nephrectomized animals” value (erythropoietin; relative to untreated BN and sham controls) was “noticably increased”.
